Activity calls are given as the source filed them.
Legend:
[1] = target: Eukaryotic translation initiation factor 4E (Mus musculus, UniProt P63073); experiment: eIF4E–eIF4G protein interaction inhibitors, dose response, biochemical, TR-FRET (AID 855); format: functional;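 note: potency for disrupting eIF4E binding to eIF4GI seen as loss of FRET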
[2] = target: T1, E3 ubiquitin-protein ligase XIAP (Homo sapiens, UniProt P98170); experiment: Counter Screen using XIAP-Bir3 for Chemical Antagonists of Bir1/2 domains of IAP-family anti-apoptotic proteins. [Related pubchem assays (depositor defined):AID1018, AID1449, AID1514, AID1638, AID1749, AID1750, AID488957, AID488963]
[3] = Luminescence Cell-Based Dose Retest to Confirm Inhibitors of Cancer Stem Cells. [Related pubchem assays (depositor defined):AID2717, AID2721]; format: functional; conditions: Homo sapiens
[4] = target: T1, E3 ubiquitin-protein ligase XIAP; experiment: XIAP antagonists, biochemical, IAP family, fluorescence polarization (AID 1018); format: functional
[5] = inhibitors of intracellular T. cruzi replication, confirmation, NIH3T3 host cells, beta-gal luminescence (AID 2044); format: functional, cell-based;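 note: intracellular parasites grown in NIH/3T3 mouse fibroblasts as host cells; luminescent beta-galactosidase reporter signal from transgenic T. cruzi replicating inside host cells; inhibitors lower the luminescence signal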
[6] = target: Induced myeloid leukemia cell differentiation protein Mcl-1 (Homo sapiens, UniProt Q07820); format: functional
[7] = target: Genome polyprotein (dengue virus type 2, UniProt P29990); experiment: Dengue-2 NS5 methyltransferase inhibitors, primary screen, biochemical, confirmation dose response (AID 588689); format: functional
[8] = cytotoxicity toward NIH3T3 fibroblasts, dose response, counter-screen, cell-based, ATP luminescence, mouse fibroblasts (AID 2010); format: functional;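 note: cells exposed to compound for about 90 hours before reading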
[9] = target: Prothrombin (Homo sapiens, UniProt P00734); experiment: Thrombin 1536 HTS Dose Response Confirmation. [Related pubchem assays: 1046 (Thrombin 1536 HTS; hits were confirmed in this assay)]; format: functional
[10] = THP-1 cell cytotoxicity, dose response, cytotoxicity control for non-replicating M. tuberculosis project (AID 489025); format: functional
[11] = cells; format: functional
[12] = cytotoxicity in HEK-293T cells, dose response, cytotoxicity control for TCR NF-kB inhibitor project, luminescence, T-cell screen hits (AID 489026); format: functional, cell-based;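 note: cells exposed to compound about 14 hours before the viability readout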
[13] = Luminescence Cell-Based Dose Confirmation HTS to Identify Activators of 5'UTR Stem-Loop Driven Alpha-Synuclein mRNA Translation in H4 Neuroglioblastoma Cells. [Related pubchem assays: 1829 (Project Summary), 1814 (Primary HTS)]; format: functional
[14] = test system: H4; experiment: Luminescence Cell-Based Dose Response HTS to Identify Activators of 5'UTR Stem-Loop Driven Prion Protein mRNA Translation in H4 Neuroglioblastoma Cells. [Related pubchem assays: 1829 (Project Summary), 1814 (Primary HTS)]; format: functional; conditions: Homo sapiens
[15] = test system: INS1; experiment: beta cell apoptosis inhibitors, cytokine rescue, dose response, luminescence, retest (AID 449756); format: functional, cell-based; conditions: Rattus norvegicus;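 note: cell death triggered by IL-1 beta plus TNF-alpha plus IFN-gamma mixture; protective hits raise ATP signal compared with cytokine alone wells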
[16] = Luminescence Cell-Based Dose Response HTS to Identify Activators of Luciferase Translation or Activity in H4 […] Cells. [Related pubchem assays: 1829 (Project Summary), 1814 (Primary HTS)]; format: functional
[17] = target: T2, Short transient receptor potential channel 4 (Mus musculus, UniProt Q9QUQ5); experiment: mouse TRPC4 channel activators, dose response, cell-based, HEK293 TRPC4/mu-opioid, Fluo-4 calcium (AID 434937); format: functional
T2 sequence (Q9QUQ5 whole entry): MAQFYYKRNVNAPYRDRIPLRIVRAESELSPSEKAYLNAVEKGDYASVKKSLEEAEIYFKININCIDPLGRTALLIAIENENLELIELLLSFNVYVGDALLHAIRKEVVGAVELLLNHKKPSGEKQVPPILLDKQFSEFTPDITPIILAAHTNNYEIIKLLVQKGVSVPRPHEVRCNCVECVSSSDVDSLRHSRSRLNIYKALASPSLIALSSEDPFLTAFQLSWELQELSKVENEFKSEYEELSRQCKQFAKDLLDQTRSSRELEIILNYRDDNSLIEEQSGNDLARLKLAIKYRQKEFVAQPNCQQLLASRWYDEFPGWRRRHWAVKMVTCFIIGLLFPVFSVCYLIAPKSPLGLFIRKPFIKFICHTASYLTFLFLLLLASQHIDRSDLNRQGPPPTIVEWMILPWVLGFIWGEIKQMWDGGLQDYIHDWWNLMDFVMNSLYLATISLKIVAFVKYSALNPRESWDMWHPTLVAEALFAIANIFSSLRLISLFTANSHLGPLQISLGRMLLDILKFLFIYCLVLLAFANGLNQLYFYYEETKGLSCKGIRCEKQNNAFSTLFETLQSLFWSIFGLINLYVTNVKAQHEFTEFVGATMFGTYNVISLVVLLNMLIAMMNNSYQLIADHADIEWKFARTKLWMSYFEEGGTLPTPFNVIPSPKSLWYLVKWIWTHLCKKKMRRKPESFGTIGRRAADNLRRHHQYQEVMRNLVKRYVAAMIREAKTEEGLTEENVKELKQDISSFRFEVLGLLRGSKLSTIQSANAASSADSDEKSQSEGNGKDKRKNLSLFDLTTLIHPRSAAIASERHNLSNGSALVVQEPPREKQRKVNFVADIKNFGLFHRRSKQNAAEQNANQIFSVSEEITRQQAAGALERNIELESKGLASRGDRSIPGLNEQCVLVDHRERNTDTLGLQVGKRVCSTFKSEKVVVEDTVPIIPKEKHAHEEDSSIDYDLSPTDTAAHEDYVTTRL

[18] = cells
[19] = test system: HEK293; experiment: cells; format: functional, cell-based; conditions: Homo sapiens
[20] = test system: HEK293; experiment: cells; format: functional, cell-based; conditions: Homo sapiens; remark: listed apart in the source
[21] = test system: HEK293; experiment: NOD1 signaling inhibitors, primary screen, cell-based, luminescence, uHTS (AID 1578); format: functional; conditions: Homo sapiens

T1 sequence (P98170 whole entry): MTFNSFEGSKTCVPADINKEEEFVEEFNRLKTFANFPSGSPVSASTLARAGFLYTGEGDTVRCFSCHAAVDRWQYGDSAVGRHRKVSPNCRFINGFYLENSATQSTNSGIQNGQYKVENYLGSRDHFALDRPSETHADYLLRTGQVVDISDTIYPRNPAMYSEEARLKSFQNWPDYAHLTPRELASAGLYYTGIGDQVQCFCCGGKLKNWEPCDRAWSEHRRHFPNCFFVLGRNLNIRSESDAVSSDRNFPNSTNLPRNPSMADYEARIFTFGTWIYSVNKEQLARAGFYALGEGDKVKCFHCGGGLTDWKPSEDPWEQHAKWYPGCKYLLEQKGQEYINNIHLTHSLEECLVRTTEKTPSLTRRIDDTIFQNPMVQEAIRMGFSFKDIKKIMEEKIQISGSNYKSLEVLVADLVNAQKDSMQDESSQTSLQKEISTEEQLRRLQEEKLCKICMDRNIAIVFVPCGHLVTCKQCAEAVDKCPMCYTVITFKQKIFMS
Chain of Eukaryotic translation initiation factor 4E (P63073 whole entry): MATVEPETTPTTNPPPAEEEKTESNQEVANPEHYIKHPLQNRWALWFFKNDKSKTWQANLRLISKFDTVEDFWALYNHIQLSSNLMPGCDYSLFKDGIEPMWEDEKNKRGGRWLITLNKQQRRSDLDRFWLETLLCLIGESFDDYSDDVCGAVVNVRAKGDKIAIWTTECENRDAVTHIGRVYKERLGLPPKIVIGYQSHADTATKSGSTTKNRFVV
Chain of Genome polyprotein (P29990 2492-3391 limits assumed): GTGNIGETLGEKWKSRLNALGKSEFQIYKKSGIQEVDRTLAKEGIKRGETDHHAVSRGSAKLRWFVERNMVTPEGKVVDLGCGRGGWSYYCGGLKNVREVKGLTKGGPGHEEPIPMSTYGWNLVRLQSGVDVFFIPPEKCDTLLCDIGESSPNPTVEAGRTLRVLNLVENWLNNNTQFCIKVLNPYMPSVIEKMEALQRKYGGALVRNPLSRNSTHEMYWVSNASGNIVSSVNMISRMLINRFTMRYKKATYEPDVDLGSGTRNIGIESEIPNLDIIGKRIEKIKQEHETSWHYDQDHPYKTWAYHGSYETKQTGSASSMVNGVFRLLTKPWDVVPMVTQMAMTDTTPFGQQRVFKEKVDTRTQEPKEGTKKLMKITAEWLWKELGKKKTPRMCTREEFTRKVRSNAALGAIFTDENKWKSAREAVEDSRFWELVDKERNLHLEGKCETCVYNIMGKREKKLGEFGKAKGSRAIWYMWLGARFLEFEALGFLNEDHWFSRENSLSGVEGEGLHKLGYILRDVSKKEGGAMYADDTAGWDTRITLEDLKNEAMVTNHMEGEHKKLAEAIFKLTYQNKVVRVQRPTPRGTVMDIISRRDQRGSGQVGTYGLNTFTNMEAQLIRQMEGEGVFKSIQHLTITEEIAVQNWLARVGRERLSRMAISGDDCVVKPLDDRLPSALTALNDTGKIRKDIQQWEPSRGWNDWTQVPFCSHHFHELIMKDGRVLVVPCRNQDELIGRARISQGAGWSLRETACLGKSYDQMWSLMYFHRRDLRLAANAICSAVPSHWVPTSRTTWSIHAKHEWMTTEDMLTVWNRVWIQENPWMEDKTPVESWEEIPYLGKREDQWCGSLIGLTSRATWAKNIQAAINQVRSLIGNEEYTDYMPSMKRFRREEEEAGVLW
Chain of Induced myeloid leukemia cell differentiation protein Mcl-1 (Q07820 whole entry): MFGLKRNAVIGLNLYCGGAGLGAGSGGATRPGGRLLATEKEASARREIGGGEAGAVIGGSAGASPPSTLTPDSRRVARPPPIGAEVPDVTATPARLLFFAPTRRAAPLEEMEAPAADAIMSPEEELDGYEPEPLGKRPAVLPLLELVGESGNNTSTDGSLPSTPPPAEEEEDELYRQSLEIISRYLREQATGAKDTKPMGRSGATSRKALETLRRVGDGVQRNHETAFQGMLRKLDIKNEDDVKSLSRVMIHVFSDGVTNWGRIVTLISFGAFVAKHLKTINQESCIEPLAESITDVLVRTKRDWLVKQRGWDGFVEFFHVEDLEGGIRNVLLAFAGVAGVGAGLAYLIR

Structure (SMILES): Cc1nnc(=O)[nH]c1NCc1ccco1
- IC50 [1]: > 64 µM (inactive)

Structure (SMILES): O=C1CC(=C(c2ccccc2)c2ccccc2)C(=O)N1CCCCN1CCN(c2cccc(Cl)c2)CC1
- IC50 [2]: > 100 µM (inactive)
- AC50 [3]: 0.624 µM (active)
- IC50 [4]: > 100 µM (not active)

Structure (SMILES): Cc1ccc(O)c(NC2=C(Cl)C(=O)N(Cc3ccccc3)C2=O)c1
- EC50 [5]: 4.37 µM (active)
- IC50 [1]: 50 µM (inactive)
- IC50 [6]: 3.01 µM (not active)
- IC50 [7]: > 100 µM (active)
- EC50 [8]: > 60 µM (inconclusive)

Structure (SMILES): O=C(NCc1nnc(S)n1-c1ccc(F)cc1)c1ccco1
- IC50 [2]: > 100 µM (inactive)
- IC50 [4]: > 100 µM (not active)

Structure (SMILES): COc1ccc(S(=O)(=O)CCc2nnc(NC(=O)c3cccs3)s2)cc1
- IC50 [9]: > 50 µM (not active)

Structure (SMILES): CC(C)(C)c1ccccc1OCCOCCN1CCCCCC1
- CC50 [10]: 27.6 µM (active)
- EC50 [5]: 0.651 µM (active)
- IC50 [11]: > 50 µM (active)
- EC50 [8]: > 60 µM (inconclusive)

Structure (SMILES): O=C1/C(=C/c2ccc(N3CCOCC3)o2)S/C(=N\c2ccccc2)N1CCc1c[nH]c2ccccc12
- IC50 [12]: > 80 µM (inactive)
- EC50 [13]: 13 µM (active)
- EC50 [14]: > 120 µM (not active)
- AC50 [15]: 17.2 µM (active)
- EC50 [16]: > 120 µM (not active)

Structure (SMILES): CCOc1ccc(NC(=O)c2ccc(CNc3c(N4CCCC4)c(=O)c3=O)cc2)cc1
- IC50 [9]: > 50 µM (not active)

Structure (SMILES): CCCC[n+]1c(C=C2C=Cc3ccccc3N2CC)sc2ccccc21
- EC50 [17]: 7.5 µM (active)
- EC50 [18]: 0.058 µM (active)
- IC50 [12]: > 80 µM (inactive)
- EC50 [5]: < 0.1 µM (active)
- IC50 [19]: 1.96 µM (active)
- IC50 [20]: 11.1 µM (active)
- EC50 [21]: 2.17 µM (active)
- EC50 [8]: > 60 µM (not active)

Reference: ChEMBL document CHEMBL1201862, “PubChem BioAssay data set” (2004)
